Test: recombinant UMI read abundance after kanamycin selection (control-corrected) (log10(CPM+1)); higher = more efficient recombination; extreme values may be limits of the assay; sequences stand for … in AGTGCAGAGAAAATCGGCCAGTTTTCTCTGCCTGCAGTCCGCATGCCGTGGGACCCCTTGGGTTCTAACCTGTTGCCTAGATTTATGCAGCGGACTGCCTTTCTCCCAAAGTGATAAACCGG…AGGTTGGTTTCACT; site = the 11-nt donor
Outline: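 Each donor and donor-binding-loop pair was tracked by a 12-nt UMI on a plasmid carrying a promoterless kanamycin gene. With a second plasmid supplying a fixed target and T7-inducible IS621 bridge recombinase, the pool was plated in Escherichia coli on IPTG (0.07 mM) plus kanamycin or unselected. Sequencing of recombinant UMIs across the donor–target junction gave counts expressed as log10(CPM+1) after replicate averaging and control-derived scaling.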
With “CGTGGAACATGGACCGGTTTTCCCGGTAATCCGTATTTGCT (site CGTGGAACTAT)” the “recombinant UMI read abundance (log10)” value was 0.45. For “CGTGGAACATGGACCGGTTTTCCCGGTAATCCGTATTTGTA (site CGTGGAACTAA)”, the “recombinant UMI read abundance (log10)” value was 0.00446. In the case of “CGTGGAACATGGACCGGTTTTCCCGGTAATCCGTATTTGTA (site CGTGGAACTCA)”, the “recombinant UMI read abundance (log10)” value is reported as 0.0215. In the case of “CGTGGAACATGGACCGGTTTTCCCGGTAATCCGTATTTGTA (site CGTGGAACTGA)”, the “recombinant UMI read abundance (log10)” value is reported as 0. In the case of “CGTGGAACATGGACCGGTTTTCCCGGTAATCCGTATTTGTA (site CGTGGAACTTA)”, the “recombinant UMI read abundance (log10)” value is reported as 2.24. In the case of “CGTGTTACATGGACCGGTTTTCCCGGTAATCCGTATTTGAT (site CGTGTTACTAT)”, the “recombinant UMI read abundance (log10)” value is reported as 0.962. For “CGTTAAACATGGACCGGTTTTCCCGGTAATCCGTATTTGAG (site CGTTAAACTCT)”, the “recombinant UMI read abundance (log10)” value was 1.31. For “CGTTAAACATGGACCGGTTTTCCCGGTAATCCGTATTTGAG (site CGTTACACTCT)”, the “recombinant UMI read abundance (log10)” value was 0. For “CGTTAAACATGGACCGGTTTTCCCGGTAATCCGTATTTGAG (site CGTTAGACTCT)”, the “recombinant UMI read abundance (log10)” value was 0.00692. With “CGTTAAACATGGACCGGTTTTCCCGGTAATCCGTATTTGAG (site CGTTATACTCT)” the “recombinant UMI read abundance (log10)” value was 0.01. In the case of “CGTTAGACATGGACCGGTTTTCCCGGTAATCCGTATTTGAA (site CGTTAGACTAT)”, the “recombinant UMI read abundance (log10)” value is reported as 0.0102. With “CGTTAGACATGGACCGGTTTTCCCGGTAATCCGTATTTGAA (site CGTTAGACTCT)” the “recombinant UMI read abundance (log10)” value was 0.00762. With “CGTTAGACATGGACCGGTTTTCCCGGTAATCCGTATTTGAA (site CGTTAGACTGT)” the “recombinant UMI read abundance (log10)” value was 0. For “CGTTAGACATGGACCGGTTTTCCCGGTAATCCGTATTTGAA (site CGTTAGACTTT)”, the “recombinant UMI read abundance (log10)” value was 1.33. For “CGTTAGGCATGGACCGGTTTTCCCGGTAATCCGTATTTGCT (site CGTTAGGCTAG)”, the “recombinant UMI read abundance (log10)” value was 0.924. With “CGTTAGGCATGGACCGGTTTTCCCGGTAATCCGTATTTGCT (site CGTTCGGCTAG)” the “recombinant UMI read abundance (log10)” value was 0.00474. With “CGTTAGGCATGGACCGGTTTTCCCGGTAATCCGTATTTGCT (site CGTTGGGCTAG)” the “recombinant UMI read abundance (log10)” value was 0. In the case of “CGTTAGGCATGGACCGGTTTTCCCGGTAATCCGTATTTGCT (site CGTTTGGCTAG)”, the “recombinant UMI read abundance (log10)” value is reported as 0.00436. In the case of “CGTTCGGCATGGACCGGTTTTCCCGGTAATCCGTATTTGTC (site CGTTCGGCTGA)”, the “recombinant UMI read abundance (log10)” value is reported as 0. With “CGTTGCACATGGACCGGTTTTCCCGGTAATCCGTATTTGGG (site CGTTGCACTCC)” the “recombinant UMI read abundance (log10)” value was 0.0529. In the case of “CGTTGGACATGGACCGGTTTTCCCGGTAATCCGTATTTGAG (site CGTTAGACTCT)”, the “recombinant UMI read abundance (log10)” value is reported as 0.878. With “CGTTGGACATGGACCGGTTTTCCCGGTAATCCGTATTTGAG (site CGTTCGACTCT)” the “recombinant UMI read abundance (log10)” value was 0.022. For “CGTTGGACATGGACCGGTTTTCCCGGTAATCCGTATTTGAG (site CGTTGGACTCT)”, the “recombinant UMI read abundance (log10)” value was 1.36. In the case of “CGTTGGACATGGACCGGTTTTCCCGGTAATCCGTATTTGAG (site CGTTTGACTCT)”, the “recombinant UMI read abundance (log10)” value is reported as 0.0464. In the case of “CGTTGTCCATGGACCGGTTTTCCCGGTAATCCGTATTTGCT (site CGTTGTCCTAG)”, the “recombinant UMI read abundance (log10)” value is reported as 0.968. In the case of “CGTTGTTCATGGACCGGTTTTCCCGGTAATCCGTATTTGTA (site CGTTGTTCTTA)”, the “recombinant UMI read abundance (log10)” value is reported as 2.19. For “CGTTTGGCATGGACCGGTTTTCCCGGTAATCCGTATTTGAT (site CGTTTGGCTAA)”, the “recombinant UMI read abundance (log10)” value was 0.0113. In the case of “CGTTTGGCATGGACCGGTTTTCCCGGTAATCCGTATTTGAT (site CGTTTGGCTAC)”, the “recombinant UMI read abundance (log10)” value is reported as 0.0714. In the case of “CGTTTGGCATGGACCGGTTTTCCCGGTAATCCGTATTTGAT (site CGTTTGGCTAG)”, the “recombinant UMI read abundance (log10)” value is reported as 1.09. In the case of “CGTTTGGCATGGACCGGTTTTCCCGGTAATCCGTATTTGAT (site CGTTTGGCTAT)”, the “recombinant UMI read abundance (log10)” value is reported as 2.22. With “CTAAACTCATGGACCGGTTTTCCCGGTAATCCGTATTTGAA (site CTAAACTCTTT)” the “recombinant UMI read abundance (log10)” value was 3.08. With “CTAACCCCATGGACCGGTTTTCCCGGTAATCCGTATTTGTA (site CTAACCCCTTA)” the “recombinant UMI read abundance (log10)” value was 1.67. For “CTAACCGCATGGACCGGTTTTCCCGGTAATCCGTATTTGTT (site CTAACCGCTAA)”, the “recombinant UMI read abundance (log10)” value was 1.6. With “CTAACTTCATGGACCGGTTTTCCCGGTAATCCGTATTTGCA (site CTAACTTCTTG)” the “recombinant UMI read abundance (log10)” value was 2.08. In the case of “CTAAGGGCATGGACCGGTTTTCCCGGTAATCCGTATTTGAT (site CTAAGGGCTAT)”, the “recombinant UMI read abundance (log10)” value is reported as 2.15. With “CTAATATCATGGACCGGTTTTCCCGGTAATCCGTATTTGAC (site CTAATATCTGT)” the “recombinant UMI read abundance (log10)” value was 2.69. With “CTAATATCATGGACCGGTTTTCCCGGTAATCCGTATTTGAC (site CTACTATCTGT)” the “recombinant UMI read abundance (log10)” value was 0. In the case of “CTAATATCATGGACCGGTTTTCCCGGTAATCCGTATTTGAC (site CTAGTATCTGT)”, the “recombinant UMI read abundance (log10)” value is reported as 2.29. With “CTAATATCATGGACCGGTTTTCCCGGTAATCCGTATTTGAC (site CTATTATCTGT)” the “recombinant UMI read abundance (log10)” value was 1.3. In the case of “CTAATATCATGGACCGGTTTTCCCGGTAATCCGTATTTGAG (site CTAATATCTCT)”, the “recombinant UMI read abundance (log10)” value is reported as 3.07. With “CTAATATCATGGACCGGTTTTCCCGGTAATCCGTATTTGAG (site CTAGTATCTGT)” the “recombinant UMI read abundance (log10)” value was 0. With “CTAATGACATGGACCGGTTTTCCCGGTAATCCGTATTTGAT (site CTAATGACTAT)” the “recombinant UMI read abundance (log10)” value was 1.69. With “CTAATGACATGGACCGGTTTTCCCGGTAATCCGTATTTGCA (site CTAATGACTTG)” the “recombinant UMI read abundance (log10)” value was 2.01. With “CTACCAACATGGACCGGTTTTCCCGGTAATCCGTATTTGGA (site CTACAAACTTC)” the “recombinant UMI read abundance (log10)” value was 0. With “CTACCAACATGGACCGGTTTTCCCGGTAATCCGTATTTGGA (site CTACCAACTTC)” the “recombinant UMI read abundance (log10)” value was 0.959. For “CTACCAACATGGACCGGTTTTCCCGGTAATCCGTATTTGGA (site CTACGAACTTC)”, the “recombinant UMI read abundance (log10)” value was 0. For “CTACCAACATGGACCGGTTTTCCCGGTAATCCGTATTTGGA (site CTACTAACTTC)”, the “recombinant UMI read abundance (log10)” value was 0.0192. With “CTACCATCATGGACCGGTTTTCCCGGTAATCCGTATTTGCT (site CGATCATCTAG)” the “recombinant UMI read abundance (log10)” value was 0. For “CTACCATCATGGACCGGTTTTCCCGGTAATCCGTATTTGCT (site CTACCATCTAG)”, the “recombinant UMI read abundance (log10)” value was 2.35. For “CTACCCGCATGGACCGGTTTTCCCGGTAATCCGTATTTGCT (site CTACCCGCTAG)”, the “recombinant UMI read abundance (log10)” value was 1.43. With “CTACGCACATGGACCGGTTTTCCCGGTAATCCGTATTTGAG (site CTACGCACTCT)” the “recombinant UMI read abundance (log10)” value was 1.29. For “CTACGCTCATGGACCGGTTTTCCCGGTAATCCGTATTTGAT (site CTACGCTCTAT)”, the “recombinant UMI read abundance (log10)” value was 2.86. For “CTACTAACATGGACCGGTTTTCCCGGTAATCCGTATTTGTA (site CTACTAACTTA)”, the “recombinant UMI read abundance (log10)” value was 2.03. With “CTACTAACATGGACCGGTTTTCCCGGTAATCCGTATTTGTA (site CTACTAACTTC)” the “recombinant UMI read abundance (log10)” value was 0.53. With “CTACTAACATGGACCGGTTTTCCCGGTAATCCGTATTTGTA (site CTACTAACTTG)” the “recombinant UMI read abundance (log10)” value was 1.51. In the case of “CTACTAACATGGACCGGTTTTCCCGGTAATCCGTATTTGTA (site CTACTAACTTT)”, the “recombinant UMI read abundance (log10)” value is reported as 1.92. With “CTACTCACATGGACCGGTTTTCCCGGTAATCCGTATTTGGG (site CTACTCACTCC)” the “recombinant UMI read abundance (log10)” value was 0.286.

— the supplement of paper PMC11208160
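Further: IS621 bridge recombinase in Escherichia coli cells against a fixed T5 target plasmid.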
